Results on one compound are retold here after patent US20250288520A1, “Microemulsion Pharmaceutical Composition For Treatment Of Disorders Of The Anterior Segment Of The Eye” (SIFI S.P.A., priority 2022, published 2025).

This series is described as follows: Bioavailability study in NZW rabbits after single dose topical administration, sorafenib content by LC-MS. Type of series: in vivo. The method, then:
Bioavailability study in NZW rabbits after single dose administration (50 μL topical administration in the right eye) was conducted and content of sorafenib tosylate in plasma (PL), bulbar conjunctivae (BCJ), aqueous humor (AH), cornea (C), vitreous (V), retina (R), and sclera (SC) was evaluated after treatment at t=5, 15, 30, 60, 90, 120 min by LC-MS.
Thirty-six NZW male rabbits, weighing approximately 2 kg, were used in this study. The study was conducted in accordance with GLP standards at the test facility IRIS PHARMA. All animals were treated according to the Directive 2010/63/UE European Convention for the Protection of Vertebrate Animals used for Experimental and Other Scientific Purposes and to the ARVO Statement for the Use of Animals in Ophthalmic and Vision Research. All animals were housed individually in standard cages under identical temperature (18° C.±3° C.), relative humidity (45%-80%), and controlled enrichment conditions and exposed to a 12-h light and darkness cycle in continuously ventilated rooms (15-20 air volumes per hour). They received a standard dry pellet diet and water ad libitum. Only animals with no macroscopic ocular signs of irritation were involved in this study and randomly divided in six time-point groups of 6 animals each (Table 3).
Animals received a single 50 μL topical administration in the right eye and at the time-points listed in Table 3 they were anesthetized by an intramuscular injection of a mix xylazine/ketamine before euthanasia by an intracardiac injection of overdosed pentobarbital. The whole blood in EDTA anticoagulant tubes were sampled by intracardiac puncture, and plasma was prepared and frozen at −23° C.±7° C. Immediately after euthanasia, BCJ, AH, C, V, R, and SC were quickly and carefully dissected from both eyes and weighed, frozen in dry ice and at −23° C.±7° C. until assay. Content of sorafenib was determined in R and PL of both eyes in priority and in AH, BCJ, C, V and SC of both eyes following the rapid resolution liquid chromatography/tandem mass spectrometry method.

Take `CNC(=O)c1cc(Oc2ccc(NC(=O)Nc3ccc(Cl)c(C(F)(F)F)c3)cc2)ccn1` [sorafenib]: the concentration at 120 min (male, NZW, rabbit, cornea, topical, 50 μL, 120 min (2 h) post treatment, SD=±596) was determined as 1710 ng/g. Also, the “time of sorafenib maximum content in retina of treated eyes” value (single 50 μL instillation in right eye) was determined as 5 min. Moreover, the “sorafenib maximum content in retina of treated eyes” value (single 50 μL instillation in right eye, 5 min after treatment) amounted to 170 ng/g. For the same compound, the “sorafenib in retina of left untreated eyes” value (single 50 μL instillation in right eye, all rabbits) was “no amount of sorafenib was detected”. Besides, under “two hours after treatment”, the “highest detected amount of sorafenib in plasma” value came to 2 ng/g.
